We go through two compounds from publication PMC9895061 (Signal Transduction and Targeted Therapy, 2023).

Read-outs that look alike come from different tables or passages of the source. Some results are limits rather than exact numbers.

One data set deals with T1, PRDX3 (Homo sapiens, UniProt P30048).
T1 sequence (P30048 62-256): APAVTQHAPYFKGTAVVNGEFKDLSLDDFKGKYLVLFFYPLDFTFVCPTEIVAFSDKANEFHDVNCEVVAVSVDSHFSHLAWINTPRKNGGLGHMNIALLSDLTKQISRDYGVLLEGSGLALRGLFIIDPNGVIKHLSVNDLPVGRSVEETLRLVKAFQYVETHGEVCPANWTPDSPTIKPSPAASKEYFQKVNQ
Description: Trx-TrxR-NADPH coupling peroxiredoxin activity assay, PRDX3. It counts as biochemical.

In another data set the target is T2, PRDX6 (Homo sapiens, UniProt P30041).
T2 sequence (P30041 1-224): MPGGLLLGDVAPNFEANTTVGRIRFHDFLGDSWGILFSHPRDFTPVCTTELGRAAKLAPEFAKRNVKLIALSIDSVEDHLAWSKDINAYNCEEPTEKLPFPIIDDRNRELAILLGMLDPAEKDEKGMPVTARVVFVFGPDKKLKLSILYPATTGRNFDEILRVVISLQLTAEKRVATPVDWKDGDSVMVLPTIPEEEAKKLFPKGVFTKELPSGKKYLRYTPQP
Description: Trx-TrxR-NADPH coupling peroxiredoxin activity assay, PRDX6. It counts as biochemical. The method, then: The assay was conducted in 96-well plates as previously described.[47] […] Then, the mixture solution containing 0.3 µM yeast Trx, 0.15 µM yeast TrxR and 200 µM NADPH was added to assay wells. The reaction was initiated with 100 µM hydrogen peroxide (H2O2) and detected with Thermo Multiskan FC at 340 nm. For PRDX1-6, the work concentration is 0.6 µM, 1.5 µM, 1 µM, 3 µM, 0.5 µM, 10 µM respectively. The initial reaction’s slope of assay wells containing mixture solution and H2O2 without PRDXs and compounds (S100%) were considered as 100 % inhibition of PRDXs’ peroxidase activity. The initial reaction’s slope of assay wells containing mixture solution, H2O2 and PRDXs without compounds (S0%) were considered as 0% inhibition of PRDXs’ peroxidase activity. […] The inhibition rate (%) was calculated from the following equations: 100 – (Scompound − S100%)/(S0% − S100%) × 100. […] Data were analyzed using GraphPad (version 8.0).

Data set [1] concerns SW620 cells. Nature of the data set: Cell viability by trypan blue staining, SW620. The conditions noted are these: for viability at 0.5 µM: Homo sapiens, SW-620, 24 h, read-out: cells viability, SW620. The protocol:
Total cell number and viability were counted with trypan blue staining. To measure apoptosis, cells were harvested and followed by flow cytometric analysis using the Annexin V-FITC / PI apoptosis detection kit according to the manufacturer’s protocol. Cell apoptosis was analyzed by FlowJo software.
e, f Cell viability were measured by trypan-blue staining.

In data set [2] the test system is SW620 cells. Description: ROS measurement by DCFH-DA staining and flow cytometry, SW620. It counts as cell-based, human. The conditions noted are these: 2 μM, 24 h. The protocol: […]. DCFH-DA was deacetylated by intracellular esterase to a non-fluorescent compound, which was later oxidized by intracellular ROS to the fluorescent DCF. DCF fluorescence was detected using flow cytometer and data was analyzed using FlowJo software (version 10.4).
g, h ROS measurement of SW620 (g) and HCT116 (h) cells with compounds treatment. […].

The target in data set [3] is T3, PRDX1 (Homo sapiens, UniProt Q06830).
T3 sequence (Q06830 1-199): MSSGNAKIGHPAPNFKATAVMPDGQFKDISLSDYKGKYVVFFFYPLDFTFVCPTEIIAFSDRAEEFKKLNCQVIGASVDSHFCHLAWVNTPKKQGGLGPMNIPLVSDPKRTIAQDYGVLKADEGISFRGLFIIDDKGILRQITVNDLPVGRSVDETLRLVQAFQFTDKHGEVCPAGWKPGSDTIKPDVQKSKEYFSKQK
Description: Trx-TrxR-NADPH coupling peroxiredoxin activity assay, PRDX1. It counts as biochemical.

Data set [4] concerns the target T4, recombinant wild type PRDX1 (Homo sapiens, UniProt Q06830).
T4 sequence (Q06830 1-199): T3 sequence (Q06830 1-199)
Nature of the data set: Surface plasmon resonance (SPR) assay. It counts as binding.

In data set [5] the target is T3, PRDX1. Description: Determination of Kinact and Ki for inhibition of PRDX1's peroxidase activity. It counts as biochemical.
In the next data set the test system is nude mice. Description: Chronic toxicity test, routine blood test. The conditions noted are these: 2 mg/kg, 5 days per week for two weeks.

`COC(=O)[C@H](C)NC(=O)N[C@]1(C)CC[C@]2(C)CC[C@]3(C)C4=CC=C5C(=CC(=O)C(O)=C5C)[C@]4(C)CC[C@@]3(C)[C@@H]2C1` [19-048, Methyl (((2R,4aS,6aS,12bR,14aS,14bR)-10-hydroxy-2,4a,6a,9,12b,14a-hexamethyl-11-oxo-1,2,3,4,4a,5,6,6a,11,12b,13,14,14a,14b-tetradecahydropicen-2-yl)carbamoyl)-L-alaninate]: the “inhibition of the peroxidase activity of PRDX3 (in words)” value at PRDX3 (recombinant PRDX3) was “no obvious inhibition”. The IC50 on PRDX3 (recombinant PRDX3, 1.5 h incubation, mean ± SEM, triplicate, read-out: IC50 against the peroxidase activity of PRDX3) was > 100 µM; against PRDX6, > 100 µM. Further, the “inhibition of the peroxidase activity of PRDX6 (in words)” value at PRDX6 (recombinant PRDX6) is “no obvious inhibition”. The “cell viability at high concentrations, SW620 (in words)” value with SW620 cells [1] (1, 2 μM, 24 h, trypan blue) is “significantly decreased cell viability”. For the same compound, the viability at 0.5 µM in the data set on SW620 cells [1] is ~80%. Also, the “ROS-positive rate, SW620” value in the data set on SW620 cells [2] came to 74.77%.

Turning to `CC1=C(O)C(=O)C=C2C1=CC=C1[C@@]2(C)CC[C@@]2(C)[C@@H]3C[C@](C)(C(=O)O)CC[C@]3(C)CC[C@]12C` [Celastrol, reference compound], the IC50 on PRDX1 [3] came to 0.29 ± 0.01 µM; against PRDX3, 6.67 ± 0.52 µM; on PRDX6 (recombinant PRDX6, 1.5 h incubation, mean ± SEM, triplicate, read-out: IC50 against the peroxidase activity of PRDX6), 27.3 ± 0.39 µM. The Kd in data set [4] turned out to be 0.36 µM. In addition, the Ki at PRDX1 [5] was 0.95 ± 0.086 µM. Moreover, in the data set on SW620 cells [1], the viability at 0.5 µM was ~80%. The “ROS-positive rate, SW620” value in the data set on SW620 cells [2] amounted to 61.07%. The “count and proportion of monocyte and neutrophil, routine blood test (in words)” value in the data set on nude mice is reported as “higher than the reference intervals”.
